Measured values as given in EP1595536A1, “PHARMACEUTICALS COMPRISING SHIKONINS AS ACTIVE CONSTITUENT” (Beijing JBC Chinese Traditional Medicine Science and …, priority 2003, dated 2004).
Values after ≈ are worked out from the molar mass of the structure shown. Where two headings read alike, the source gives them in different places.

Assays:
dermatophyte = assay: In vitro antifungal test; format: cell-based
cryptococcus neoformans = assay: In vitro antifungal test; format: cell-based
red trichophyton = assay: In vitro antifungal test; format: cell-based
[1] = system: Ascitic tyre liver cancer; assay: Animal test of tumor restraint; format: in vivo
S180 = assay: Animal test of tumor restraint; format: in vivo
Lewis lung cancer = assay: Animal test of tumor restraint; format: in vivo
L1210 = assay: Animal test of tumor restraint; format: in vivo
W256 = assay: Animal test of tumor restraint; format: in vivo
[2] = system: Gram-positive staphylococcus aureus; assay: Drug sensitivity test (MIC)
pneumobacillus = assay: Drug sensitivity test (MIC)
stenotrophomonas bacilli = assay: Drug sensitivity test (MIC)
bacteroides fragilis = assay: Drug sensitivity test (MIC)
Helicobacter pylori = assay: Drug sensitivity test (MIC)
mycoplasma pneumoniae = assay: Bacteriostatic effect on mycoplasma
candida and cryptococcus = assay: In vitro antifungal test; format: cell-based
C.krusei = assay: In vitro antifungal test; format: cell-based; details: Pichia kudriavzevii
Pseudallescheria boydii = assay: In vitro antifungal test; format: cell-based; details: Scedosporium boydii
[3] = system: aspergillus fumigatus, cryptococcus and red trichophyton; assay: In vitro antifungal test; format: cell-based
Bacteroid = assay: Comparative MIC experiment, Zicao extract vs Shikonin compounds; format: cell-based
DHBV = assay: Virus restraint in DHBV-infected duck; format: in vivo; details: oral, 100mg/kg twice a day, 10 days
[4] = system: Staphylococcus epidermidis; assay: Comparative MIC experiment, Zicao extract vs Shikonin compounds
Serratia marcescens = assay: as above
Candida albicans = assay: as above
[5] = Gram-positive staphylococcus aureus
[6] = stenotrophomonas bacilli, stated as especially effective, compared with berberine
[7] = bacteroid, especially bacteroides fragilis

Row | SMILES | MIC (dermatophyte) [µg/mL] | MIC90 (dermatophyte) [µg/mL] | Life prolonged rate [1] [%] | Tumor inhibitory rate (S180) [%] | Tumor inhibitory rate (Lewis lung cancer) [%] | MIC [2, 5] | MIC (pneumobacillus) | MIC (pneumobacillus; some bacterial strains) | MIC (stenotrophomonas bacilli; [6]) | MIC (bacteroides fragilis; [7]) | MIC (Helicobacter pylori) | MIC (mycoplasma pneumoniae; mycoplasma pneumoniae) | MIC (stenotrophomonas bacilli; Stenotrophomonas) [µg/mL] | also measured
1 | OC(Cn1cncn1)(Cn1cncn1)c1ccc(F)cc1F [fluconazole, reference compound] | 32 to 64 (≈ 104 to 209 µM) | 64 (≈ 209 µM) | – | – | – | – | – | – | – | – | – | – | – | –
2 | CC(=O)O[C@H](CC=C(C)C)C1=CC(=O)c2c(O)ccc(O)c2C1=O [Acetylshikonin] | – | – | 112.6 | 35.7 | 52.6 | 0.391-12.5 ì g/ml | 0.391-6.25 ì g/ml | 12.5-50 ì g/ml | 0.391-0.781 ì g/ml | 0.391-6.25 ì g/ml | 0.391 - 0.781 ì g/ml | 7.819 ì g/ml | – | MIC (cryptococcus neoformans): 3.906 ¦Ìg/ml; MIC (red trichophyton): 0.9062- 62.5 ¦Ìg/ml; Tumor inhibitory rate [1]: 47.8%; Life prolonged rate (L1210): 128%; Tumor inhibitory rate (W256): 77%
3 | CC(C)=CCC(OC(=O)C=C(C)C)C1=CC(=O)c2c(O)ccc(O)c2C1=O (stereo not drawn) | 4.16 to 8.32 (≈ 11.2 to 22.5 µM) | 4.16 (≈ 11.2 µM) | 113.4 | 9.63 | 42.8 | – | 0.391 to 6.25 µg/mL (≈ 1.06 to 16.9 µM) | 12.5 to 50 µg/mL (≈ 33.7 to 135 µM) | – | – | 0.391 to 0.781 µg/mL (≈ 1.06 to 2.11 µM) | – | 0.391 to 0.781 (≈ 1.06 to 2.11 µM) | MIC (candida and cryptococcus): 2.08 to 33.3 µg/mL (≈ 5.62 to 89.9 µM); MIC90 (candida and cryptococcus): 33.3 µg/mL (≈ 89.9 µM); MIC (C.krusei): 8.32 to 16.6 µg/mL (≈ 22.5 to 44.8 µM); MIC (Pseudallescheria boydii): 4.16 to 8.32 µg/mL (≈ 11.2 to 22.5 µM); MIC [3]: 3.06 to 250 µg/mL (≈ 8.27 to 675 µM); MIC (Bacteroid): 0.391 µg/mL (≈ 1.06 µM); toxic reaction (DHBV): without toxic reaction; MIC ([2]; Staphylococcus aureus): 0.391 to 12.5 µg/mL (≈ 1.06 to 33.7 µM); MIC (bacteroides fragilis; Bacteroides fragilis): 0.391 to 6.25 µg/mL (≈ 1.06 to 16.9 µM); MIC (mycoplasma pneumoniae; Mycoplasma): 2 µg/mL (≈ 5.4 µM); MIC [4]: 0.391 µg/mL (≈ 1.06 µM); MIC (Serratia marcescens): 0.781 µg/mL (≈ 2.11 µM); MIC (Candida albicans): 3.91 µg/mL (≈ 10.5 µM)
4 | CC(C)=CC[C@@H](O)C1=CC(=O)c2c(O)ccc(O)c2C1=O [Shikonin] | – | – | 130.8 | – | – | 0.391-12.5 ì g/ml | 0.391-6.25 ì g/ml | 12.5-50 ì g/ml | 0.391-0.781 ì g/ml | 0.391-6.25 ì g/ml | 0.391 - 0.781 ì g/ml | 3.751 ì g/ml | – | –
5 | COc1ccc2cc3[n+](cc2c1OC)CCc1cc2c(cc1-3)OCO2 [berberine, reference compound] | – | – | – | – | – | – | – | – | – | – | – | – | 8 to 32 | –
